IC50, CC50 and EC50 data for 12 molecules are collected here from patent US9586986B2, “Substituted 7-deazapurine ribonucleosides for therapeutic uses” (Institute of Organic Chemistry and Biochemistry ASCR, v.v.i., priority 2014, dated 2017).

What all share (format): cell-based
In one series the test system is HCT116p53-/-. Put plainly: Cytostatic/cytotoxic MTT assay, HCT116p53-/-. Particulars: Homo sapiens, HCT-116; 72 h incubation; read-out: MTT, IC50 HCT116 p53-/-. The source says:
(§1) Unless otherwise stated, all cells were purchased from the […] (ATCC). The CCRF-CEM line is derived from T lymphoblastic leukemia, evincing high chemosenzitivity, K562 represent cells from a […] patient sample with bcr-abl translocation, HCT116 is colorectal tumor cell line and its p53 gene knock-down counterpart (HCT116p53−/−, Horizon Discovery, UK) is a model of human cancers with p53 inactivation frequently associated with poor prognosis, A549 cell line is lung adenocarcinoma. The daunorubicin resistant subline of CCRF-CEM cells (CEM-DNR bulk) and paclitaxel resistant subline K562-TAX were selected in our laboratory by cultivation of maternal cell lines in increasing concentrations of daunorubicine or paclitaxel, respectively. The CEM-DNR cells overexpress mrp-1 and mdr-1 genes, while K562-TAX cells overexpress mdr-1 only. Both proteins belong to the family of ABC transporters and are involved in the primary and/or acquired multidrug resistance phenomenon (ref.: Gottesman, M. M.; Fojo, T.; Bates, S. E. Multidrug resistance in cancer: role of ATP-dependent transporters. Nat. Rev. Cancer. 2002, 2, 48-58. (b) Noskova, V.; Dzubak, P.; Kuzmina, G.; Ludkova, A.; Stehlik, D.; Trojanec, R.; Janostakova, A.; Korinkova, G.; Mihal, V.; Hajduch, M. In vitro chemoresistance profile and expression/function of MDR associated proteins in resistant cell lines derived from CCRF-CEM, K562, A549 and MDA MB 231 parental cells. Neoplasma 2002, 49, 418-425). Non-malignant MRC-5 and BJ cells, derived from normal human fibroblasts, were used as controls. The cells were maintained in Nunc/Corning 80 cm^2 plastic tissue culture flasks and cultured in cell culture medium (DMEM/RPMI 1640 with 5 g/L glucose, 2 mM glutamine, 100 U/mL penicillin, 100 µg/mL streptomycin, 10% fetal calf serum, and NaHCO3). Cell suspensions were prepared and diluted according to the particular cell type and the expected target cell density (25,000-30,000 cells/well based on cell growth characteristics). Cells were added by pipette (80 L) into 96-well microtiter plates. Inoculates were allowed a pre-incubation period of 24 h at 37° C. and 5% CO2 for stabilization. Four-fold dilutions, in 20-L aliquots, of the intended test concentration were added to the microtiter plate walls at time zero. All test compound concentrations were examined in duplicate. Incubation of the cells with the test compounds lasted for 72 h at 37° C., in a 5% CO2 atmosphere at 100% humidity. At the end of the incubation period, the cells were assayed using MTT. Aliquots (10 L) of the MTT stock solution (5 mg/ml) were pipetted into each well and incubated for another 1-4 h. After this incubation period the formazan produced was dissolved by addition of 100 µL/well of 10% aq SDS (pH 5.5), followed by a further incubation at 37° C. overnight. The optical density was measured at 540 nm. The IC50 value, the drug concentration inhibiting the cell growth by 50%, was calculated from appropriate dose-response curves.
(§2) In vitro cytotoxic/cytostatic activity final nucleosides 1-5 was initially evaluated against […] cell lines derived from human solid tumors including lung (A549 cells) and colon (HCT116 and HCT116p53−/−) carcinomas, as well as leukemia cell lines (CCRF-CEM, CEM-DNR, K562 and K562-TAX) and, for comparison, non-malignant BJ and MRC-5 fibroblasts. Concentrations inhibiting the cell growth by 50% (IC50) were determined using a quantitative metabolic staining with 3-(4,5-dimethylthiazol-2-yl)-2,5-diphenyltetrazolium bromide (MTT) (ref.: Denizot, F.; Lang, R. Rapid colorimetric assay for cell growth and survival: Modifications to the tetrazolium dye procedure giving improved sensitivity and reliability. J. Immunol. Meth. 1986, 89, 271-277) following a 3-day treatment.
Multidrug resistance is a major therapeutic problem in cancer chemotherapy. […]

Series [1] has as its system Huh-7 cells harboring replicon 2A. Put plainly: Cytotoxicity in replicon 2A cells. Particulars: HCV subtype 2A replicon. As to the method: (§3) Compounds were also tested in Huh-7 cells harboring sub-genomic reporter replicons derived from HCV subtypes 1B and 2A (ref.: Stuyver, L. J.; Whitaker, T.; McBrayer, T. R.; Hernandez-Santiago, B. I.; Lostia, S.; Tharnish, P. M.; Ramesh, M.; Chu, C. K.; Jordan, R.; Shi, J. X.; Rachakonda, S.; Watanabe, K. A.; Otto, M. J.; Schinazi, R. F. Antimicrob. Agents Chemother. 2003, 47, 244-254).
For orientation: A replicon is a self-replicating genome or part of one, used to study replication in cells.

The test system of another series is MRC-5. In words: Cytostatic/cytotoxic MTT assay, MRC-5 fibroblasts. The settings on record: Homo sapiens, MRC5; non-malignant fibroblasts, 72 h; read-out: MTT, IC50 MRC-5.
From the text: as §1, §2
On the technique in general: Tetrazolium dyes change colour on reduction, which living cells bring about.

The next series has as its system K562. Put plainly: Cytostatic/cytotoxic MTT assay, K562. Particulars: Homo sapiens, K562; 72 h incubation; read-out: MTT, IC50 K562.
From the text: as §1, §2

The subject of a further series is HL60. In words: XTT cytotoxicity assay, HL-60. The settings on record: Homo sapiens, HL-60; 72 h incubation; read-out: XTT, IC50 HL60. The procedure: HL-60, Hela S3 and HepG2 cell lines (ATCC) were grown in RPMI-1640 or DMEM medium supplemented with 10% fetal calf serum, […] of streptomycin, 200 U/mL of penicillin G and 4 mM glutamine in a humidified atmosphere containing 5% CO2 at 37° C. Sensitivity of these cell lines to the synthesized compounds was assessed with the use of XTT cell proliferation kit II (Roche Diagnostics GmbH, Mannheim, Germany) according to the manufacturer's instructions. Briefly, cells were seeded in a 96-well plate at a density of 10,000 cells per well (90 μL). After 24 h, 10 μL of the tested compounds were added to the culture media at desired concentration range and incubated for 72 h. After that 50 μL of the XTT solution was added (1 mg/mL XTT+0.383 mg/mL N-methyl dibenzopyrazine methyl sulfate). The absorbance was recorded at 495 nm following a 2 h-incubation with the dye. IC50 values were determined by non-linear regression method using GraphPad Prism version 5.00 for Windows (GraphPad Software, La Jolla, Calif., USA).
In addition, the anti-proliferative effect was tested against a human T-lymphoblastic leukemia line CCRF-CEM, promyelocytic leukemia HL-60 and cervical carcinoma HeLa S3 growing in liquid suspension. Cell viability was determined following a 3-day incubation using 2,3-bis-(2-methoxy-4-nitro-5-sulfophenyl)-2H-tetrazolium-5-carboxanilide (XTT) assay (ref.: Scudiero, D. A.; Shoemaker, R. H.; Paull, K. D.; Monks, A.; Tierney, S.; Nofziger, T. H.; Currens, M. J.; Seniff, D.; Boyd M. R. Evaluation of a Soluble Tetrazolium/Formazan Assay for Cell Growth and Drug Sensitivity in Culture Using Human and Other Tumor Cell Lines. Cancer Res. 1988, 48, 4827-4833).

Series [2] concerns HCV subtype 2A replicon in Huh-7 cells. In words: HCV sub-genomic reporter replicon assay, subtype 2A. The settings on record: Hepatitis C virus; Huh-7 cells, HCV subtype 2A replicon; read-out: Replicon 2A EC50. As to the method: as §3

Where only a bound is given, the exact number is not on record here.

Take `COc1ncnc2c1c(-c1ccco1)cn2[C@@H]1O[C@H](CO)[C@@H](O)[C@H]1O` [Compound 1a, 5-(Furan-2-yl)-4-methoxy-7-(β-D-ribofuranosyl)-7H-pyrrolo[2,3-d]pyrimidine]: the IC50 in the series with HCT116p53-/- amounted to 0.04 µM; with MRC-5 it was 1.7 µM; with K562, 0.06 µM; in the series with HL60 it was 0.1 µM. The molecule also displayed a CC50 in series [1] above 44 µM. Moreover, the concentration for a half-maximal effect (EC50) in series [2] is 0.03 µM.
`COc1ncnc2c1c(-c1ccoc1)cn2[C@@H]1O[C@H](CO)[C@@H](O)[C@H]1O` [Compound 1b, 5-(Furan-3-yl)-4-methoxy-7-(β-D-ribofuranosyl)-7H-pyrrolo[2,3-d]pyrimidine]: the IC50 is 0.13 µM with HCT116p53-/-, 29.4 µM in the series with MRC-5, 0.19 µM in the series with K562 and 0.15 µM in the series on HL60. Also, the cytotoxic concentration (CC50) in series [1] was above 44 µM. In addition, the EC50 in series [2] is 8.28 µM.
Consider `COc1ncnc2c1c(-c1cccs1)cn2[C@@H]1O[C@H](CO)[C@@H](O)[C@H]1O` [Compound 1c, 4-Methoxy-7-(β-D-ribofuranosyl)-5-(thiophen-2-yl)-7H-pyrrolo[2,3-d]pyrimidine], for which the IC50 worked out at 0.44 µM with HCT116p53-/-, 43.2 µM in the series with MRC-5, 0.07 µM in the series with K562 and 0.08 µM with HL60. This molecule gave a CC50 in series [1] above 44 µM. For the same molecule, in series [2], the half-maximal effective concentration (EC50) is above 44 µM.
`COc1ncnc2c1c(-c1ccsc1)cn2[C@@H]1O[C@H](CO)[C@@H](O)[C@H]1O` [Compound 1d, 4-Methoxy-7-(β-D-ribofuranosyl)-5-(thiophen-3-yl)-7H-pyrrolo[2,3-d]pyrimidine]: the IC50 in the series with HCT116p53-/- was 0.14 µM; in the series with MRC-5 it was 75.3 µM; in the series on K562, 0.09 µM; with HL60 it was 0.13 µM. This molecule displayed a cytotoxic concentration (CC50) in series [1] above 44 µM. Moreover, the EC50 in series [2] was above 44 µM.
Turning to `COc1ncnc2c1c(-c1ccccc1)cn2[C@@H]1O[C@H](CO)[C@@H](O)[C@H]1O` [Compound 1e, 4-Methoxy-5-phenyl-7-(β-D-ribofuranosyl)-7H-pyrrolo[2,3-d]pyrimidine], the IC50 is above 20 µM in the series with HCT116p53-/-, above 100 µM in the series with MRC-5, above 20 µM in the series on K562 and above 20 µM in the series with HL60. For the same molecule, the 50% cytotoxic concentration (CC50) in series [1] was above 44 µM. The EC50 in series [2] is above 44 µM.
Consider `COc1ncnc2c1c(-c1cc3ccccc3o1)cn2[C@@H]1O[C@H](CO)[C@@H](O)[C@H]1O` [Compound 1f, 5-(Benzofuran-2-yl)-4-methoxy-7-(β-D-ribofuranosyl)-7H-pyrrolo[2,3-d]pyrimidine], for which the IC50 came to 14.5 µM with HCT116p53-/-, 65.6 µM in the series with MRC-5, 20.9 µM in the series with K562 and 4.47 µM in the series on HL60. Besides, the CC50 in series [1] was above 44 µM. The EC50 in series [2] is 10.2 µM.
Take `C#Cc1cn([C@@H]2O[C@H](CO)[C@@H](O)[C@H]2O)c2ncnc(OC)c12` [Compound 1g, 5-Ethynyl-4-methoxy-7-(β-D-ribofuranosyl)-7H-pyrrolo[2,3-d]pyrimidine]: the IC50 is 5.14 µM in the series with HCT116p53-/-, above 100 µM in the series with MRC-5, 0.3 µM with K562 and 0.19 µM in the series with HL60. The half-maximal cytotoxic concentration (CC50) in series [1] is above 44 µM. Besides, the concentration giving a half-maximal response (EC50) in series [2] is above 44 µM.
As for `COc1ncnc2c1c(I)cn2[C@@H]1O[C@H](CO)[C@@H](O)[C@H]1O` [Compound 1h, 5-iodo-4-methoxy-7-(β-D-ribofuranosyl)-7H-pyrrolo[2,3-d]pyrimidine, reference compound], the IC50 in the series on HCT116p53-/- was above 20 µM; with MRC-5, 63 µM; with K562, above 20 µM; in the series on HL60 it was 2.3 µM. The CC50 in series [1] is above 44 µM. Further, the EC50 in series [2] was above 44 µM.
As for `CSc1ncnc2c1c(-c1ccco1)cn2[C@@H]1O[C@H](CO)[C@@H](O)[C@H]1O` [Compound 2a, 5-(Furan-2-yl)-4-methylsulfanyl-7-(β-D-ribofuranosyl)-7H-pyrrolo[2,3-d]pyrimidine], the IC50 in the series with HCT116p53-/- is 0.01 µM; in the series with MRC-5, 73.9 µM; in the series with K562 it was 0.04 µM; in the series with HL60, 0.12 µM. Also, in series [1], the CC50 was above 44 µM. The half-maximal effective concentration (EC50) in series [2] amounted to 0.05 µM.
For `CSc1ncnc2c1c(-c1ccoc1)cn2[C@@H]1O[C@H](CO)[C@@H](O)[C@H]1O` [Compound 2b, 5-(Furan-3-yl)-4-methylsulfanyl-7-(β-D-ribofuranosyl)-7H-pyrrolo[2,3-d]pyrimidine], the IC50 is 0.1 µM in the series with HCT116p53-/-, above 100 µM in the series on MRC-5, 0.06 µM in the series with K562 and 0.36 µM with HL60. In series [1], this molecule displayed a CC50 above 44 µM. Also, the 50% effective concentration (EC50) in series [2] is above 44 µM.
`CSc1ncnc2c1c(-c1cccs1)cn2[C@@H]1O[C@H](CO)[C@@H](O)[C@H]1O` [Compound 2c, 4-Methylsulfanyl-7-(β-D-ribofuranosyl)-5-(thiophen-2-yl)-7H-pyrrolo[2,3-d]pyrimidine]: the IC50 in the series with HCT116p53-/- is above 20 µM; with MRC-5 it was above 100 µM; with K562, 11.6 µM; in the series with HL60, 1.13 µM. For the same molecule, in series [1], the CC50 was above 44 µM. Also, the EC50 in series [2] was above 44 µM.
For `CSc1ncnc2c1c(-c1ccsc1)cn2[C@@H]1O[C@H](CO)[C@@H](O)[C@H]1O` [Compound 2d, 4-Methylsulfanyl-7-(β-D-ribofuranosyl)-5-(thiophen-3-yl)-7H-pyrrolo[2,3-d]pyrimidine], the IC50 with HCT116p53-/- is above 20 µM; with MRC-5, above 100 µM; in the series on K562, 0.45 µM; in the series on HL60 it was 4.59 µM. The CC50 in series [1] is above 44 µM. Moreover, the concentration giving a half-maximal response (EC50) in series [2] is above 44 µM.

A word on the CC50: it is the concentration giving 50% cytotoxicity. Higher therefore signals lower toxicity to the cells. By EC50 is commonly meant the concentration needed to bring the measured effect to its halfway point.
